Data taken from US7772192B2, “Compositions and methods for treatment of disease with acetylated disaccharides” (The Regents of the University of California, priority 2003, dated 2010).

Legend:
[1] = system: LS180 colon carcinoma cells; test: Adhesion of activated human platelets to tumor cells (LS180); assay type: cell-based; details: 50 μM, 3 days, thrombin-activated human platelets
Description: Adhesion of activated human platelets to tumor cells. Tumor cells were seeded into 6-well plates (5×10^4/well), and allowed to grow into colonies in the presence or absence of 50 μM AcGnG-NM. After 3 days, platelets were isolated from 15 ml of normal human blood collected into 20% (v/v) Acid-Citrate-Dextrose (ACD) anticoagulant. A platelet-rich plasma was prepared by centrifugation and repeated washing using PSG buffer (5 mM HEPES, pH 6.8, 145 mM NaCl, 4 mM KCl, 0.5 mM sodium phosphate, 5.5 mM glucose, 0.5% BSA, and 25 nM prostaglandin E1 [Sigma]). The platelets were then labeled with Calcein AM (5 μM), and counted with a hemocytometer. Wells containing tumor cells were washed with HBSS, and 3×10^6 platelets were added in 1 ml of HBSS followed by activation with human thrombin (0.8 IU/well; Sigma). The plates were rocked for 10 min, and the wells were washed twice with HBSS, fixed with 5% formalin in HBSS, and analyzed by fluorescence microscopy. […]
Platelets bound to tumor cells were visualized by fluorescence microscopy (Nikon Diaphot) equipped with a digital camera (Nikon) linked to an Apple Macintosh computer with Adobe Photoshop software. The fluorescence image showing the platelets was superimposed on a phase-contrast picture of the cells and the number of attached platelets was quantified. […]

Blood cell counts = assay type: in vivo

levels of blood cell components (Blood cell counts; in vivo): not affected | Lymphocytes (Blood cell counts; n = 13): 6.1 ± 2.1 K/μL | Neutrophils (Blood cell counts; n = 13): 1.5 ± 0.5 K/μL | Platelets (Blood cell counts; n = 13): 1031 ± 174 K/μL | Red Blood Cells (Blood cell counts; n = 13): 10.5 ± 0.9 M/μL | Total Leukocytes (Blood cell counts; n = 13): 7.8 ± 2.6 K/μL
Substance: GlcNAcβ1,3Galβ-O-naphthalenemethanol [AcGnG-NM]
reduction of platelet adhesion [1]: 60%
